Source: a melting point compilation (Tetko et al.; mined from patent text by program, amines drawn as free bases though some values may be those of a salt)
Non-standard residues stand in square brackets, D forms with d. Residues, ends and D or L forms follow the SMILES beside them. ξ: configuration not given here. *: point of attachment. Cbz = O=C(OCc1ccccc1)*; Boc = CC(C)(C)OC(=O)*; Aib = CC(C)(N)C(=O)O; ξDap = NCC(N)C(=O)O

Row | melting point [°C] | SMILES
1 | 174 to 175 | Oc1c2c(nn1-c1ncccc1C(F)(F)F)CCc1ccccc1-2
2 | 200 to 203 | FC(F)(F)c1csc(Nc2cc3ccccc3cn2)n1
3 | 44 to 45 | O=C(NCCc1ccc(F)cc1)OCC1CCCCC1
4 | 207 to 208 | Cc1[nH]c2cccc(/C=C/C(=O)OCc3ccccc3)c2c1Cn1ccnc1
5 | 108 to 110 | CCOC(=O)c1cnc2n(c1=O)CCC(C)C2=NNc1ccccc1 (stereo unspecified)
6 | 116 to 117 | COc1ccc(C2CCN(C(=O)C(N)=O)CC2)cc1C=C1CCCC1
7 | 111 to 112 | COC1CN(c2ccc(N3C[C@H](CN=[N+]=[N-])OC3=O)cc2F)C1
8 | 191 to 192 | O=C(C1=C(c2ccccc2)c2ccc(O)cc2C1)c1ccc(O)cc1
9 | 108 to 110 | CCC(CC)c1ccc(Cl)c2nc3n(c12)CCCCN3c1ncc(C(F)(F)F)cc1Cl
10 | 80 to 81 | CC(C)NCC(O)COc1ccccc1-n1cccc1 (stereo unspecified)
11 | 102 to 103 | FC(F)c1cccc(C#CCCn2nc3ccccc3n2)n1
12 | 110 to 112 | COC(=O)CC1CCc2cc(OC)ccc2C1=O (stereo unspecified)
13 | 98.5 to 99.9 | CCOc1ccccc1OC(c1ccccc1)C(O)CN (stereo unspecified)
14 | 178 to 180 | Nc1nc2c(s1)CCN(CC=Cc1cccc3ccccc13)CC2
15 | 181 to 183 | CNc1nc(-c2cccc(-c3cncc4ccccc34)c2)c2cc(OC)c(OC)cc2n1
16 | 121 to 124 | COC(=O)c1snc(-c2cc(OC)c(Cl)cc2F)c1N
17 | 210 to 212 | CC1CCC2(OC1)OC1CC3C4CC(=O)C5CCCCC5(C)C4CCC3(C)C1C2C (stereo unspecified)

Row | melting point [°C] | SMILES
18 | 138 to 140 | CCOc1ccc(-c2c(C(=O)OC)c(C(=O)OC)c(O)c3cc(OC)c(OC)c(OC)c23)cc1OCC
19 | 107 to 110 | O=Cc1ccc(N(c2ccccc2)c2ccccc2)c2ccccc12
20 | 180 to 181 | C=C1c2[nH]c3ccc(OC)cc3c2CCN1C=O
21 | 231 to 233 | CNC(=O)c1cncc(NC(=O)N2CCC3(CCc4ccc(F)cc4O3)CC2)c1
22 | > 250 | CC(C)Cc1c2c(nn1C)c(N)nc1ncccc12
23 | 134 to 135 | Cc1cc(C)nc(N(C=O)c2ccccc2)n1
24 | 172 to 173 | Cc1cccc(C)c1NCc1nnc(S)n1C
25 | 149 to 151 | COc1ccccc1COc1ccc(S(=O)(=O)c2ccc(C)nc2Nc2cc(OC)c(OC)cc2Cl)cc1
26 | 106 to 109 | O=C(c1ccc(F)cc1)C1CCN(S(=O)(=O)c2ccccc2)CC1
27 | 132 to 135 | Clc1ccc2c(c1)CNc1ccccc1C2
28 | > 300 | O=c1cc(O)c2c([nH]1)CCCC2
29 | 127 to 128 | CCCNC(=O)c1cc2ccc(OC)cc2n1CCNC(C)=O
30 | 179 | O=C(c1cc(Br)cc(Br)c1O)c1cc(Br)cc(Br)c1O
31 | 92 to 93 | O=C(CS)N1CCSC1COc1ccccc1O (stereo unspecified)
32 | 169 to 170 | CCOC(=O)C(=O)Cc1c[nH]c2ccc(OCc3ccccc3)cc12
33 | 109 to 111 | COC(=O)NC=Cc1ccc(OCC(O)CNC(C)CC(N)=O)cc1 (stereo unspecified)

Second part, the compound before the results:

Row | SMILES | melting point [°C]
34 | CS(=O)c1nccc(N)n1 (stereo unspecified) | 158 to 159
35 | O=C1Nc2cc([N+](=O)[O-])ccc2OC1(C(F)F)C(F)F | 178 to 181
36 | CCN(CC)N(C(C)=O)c1nc2cc3nc(N(C(C)=O)N4CCCCC4)sc3cc2s1 | 280 to 282
37 | N#CC1(N)CCSCC1 | 51 to 52
38 | Cc1nnc2n1-c1ccc(C#CCN3C(=O)CN(C)C(=O)c4ccccc43)cc1C(c1ccccc1F)=NC2 | 179 to 182
39 | CCOC(=O)C1=C(N(C)C)N=C(C)C(C(=O)OCC)C1c1ccccc1C(F)(F)F (stereo unspecified) | 87
40 | CCCN(CCCc1c[nH]c2ccc(OC)cc12)C1COc2c(F)ccc(C(N)=O)c2C1 (stereo unspecified) | 145 to 152
41 | N#Cc1cc(C(=O)NNC(=O)c2occc2-c2ccccc2OCc2ccccc2)ccc1O | 118 to 120
42 | COc1cc2c(cc1OC)C1Cc3cc4c(cc3CC(=O)N1CC2)OCO4 (stereo unspecified) | 207 to 209
43 | CC(C)(C)c1ccc(C(=O)CCC(=O)O)cc1 | 117 to 120
44 | O=C1c2ccccc2-n2cnc(-c3noc(CCl)n3)c2[C@@H]2CCCN12 | 205 to 206
45 | O=C(O)CN(CCN(CC(=O)O)C(COCc1ccccc1)C(=O)O)C(COCc1ccccc1)C(=O)O (stereo unspecified) | 177
46 | O=C(Cc1ccc(Cl)cc1)Nc1cc(CC2SC(=O)NC2=O)ccc1O (stereo unspecified) | 207 to 209
47 | O=C1c2c(ccc(O)c2O)CC1C(=O)c1c(F)c(F)c(F)c(F)c1F (stereo unspecified) | 114 to 115
48 | Cc1ccc(S(=O)(=O)N2CCCC2c2cccc(Cl)c2)cc1 (racemic) | 107
49 | CCCCc1nc(Cl)c(CC(=O)O)n1Cc1ccc(NC(=O)c2ccccc2C(=O)O)cc1 | 170 to 175
50 | COc1ccc(N2CCN(c3ccc(-n4cnnc4SC)cc3)CC2)cc1 | 180
51 | C=C(C)OC1CCC(=O)N1S(=O)(=O)c1ccccc1 (stereo unspecified) | 54 to 56
52 | CCOC(=O)C1Cc2c([nH]c3ccccc23)CN1 (stereo unspecified) | 126 to 128
53 | CC(C)(C)OC(=O)Nc1ccc(F)c(F)c1C(=O)O | 160
54 | CC(=O)OC1(C(C)=O)CCC2C3C=C(Cl)C4=CC(=O)OC(O)C4(C)C3CCC21C (stereo unspecified) | 276 to 278
55 | NP(N)(=O)Nc1ccccc1[N+](=O)[O-] | 200
56 | CCN1C(=O)CCC(C)(C)c2cc([N+](=O)[O-])ccc21 | 67

Row | SMILES | melting point [°C]
57 | CCCCS(=O)(=O)NC1Cc2ccccc2C1 | 60 to 62
58 | Cc1c(C)c2c(c(C)c1O)CCC(C)(C(=O)Nc1ccccc1)O2 (stereo unspecified) | 107 to 109
59 | O=C1NC(=O)C(Cc2ccc(OCCON=Cc3ccncc3)cc2)S1 (stereo unspecified) | 221
60 | O=C1c2ccccc2C(=O)N1CCCSc1ncccn1 | 81.5 to 82.5
61 | COc1ccc2c(c1)C13CCN(C)C(C2)C1CCC(=O)C3 (stereo unspecified) | 187 to 188
62 | Cc1cccc(NC(=O)NC2N=C(c3ccccc3)c3ccsc3N(C)C2=O)c1 (stereo unspecified) | 128 to 130
63 | O=C(O)CO[C@@H]1COc2nc([N+](=O)[O-])cn2C1 | 178 to 179
64 | O=C(NCCO)c1cccc(-c2cccc3nc(C(O)c4cccc(C(F)(F)F)c4)cn23)c1 (stereo unspecified) | 169
65 | CCOC(=O)C1CC(O)CN1C(=O)c1ccc(OC)cc1 (stereo unspecified) | 64
66 | Cc1cc(C)c(NC(=O)C2c3ccccc3COc3ccc(C)cc32)c(C)c1 (stereo unspecified) | 148 to 149
67 | O=[N+]([O-])c1ccc(S(=O)(=O)C2COCC2Br)cc1 (stereo unspecified) | 155 to 157
68 | Nc1ccccc1NC(=O)c1cc2cc(OCc3ccccn3)ccc2s1 | 205 to 207
69 | Cn1cccc1C(=NOCc1cccs1)C(=O)O | 70 to 71
70 | Clc1ccc2nc(-c3ccccc3)n(CCCN3CCN(C(c4ccccc4)c4ccccc4)CC3)c2c1 | 198
71 | Cc1cc(C)c2c(n1)Nc1cc(C)c(C)cc1N(C)C2=O | 225 to 227
72 | O=C(O)c1cn(-c2ccnc3ccccc23)c2ccc(F)cc12 | 148
73 | COc1cc(C)c(C=CC(C)=CC=C(C)C(=O)O)cc1C | 222 to 224
74 | COC(=O)CCc1oc(Sc2ccc(O)cc2)nc1-c1ccccc1 | 157 to 158
75 | CC(C)(C)c1cc(C(=O)c2cccs2)cc(CN(C2CCCCC2)C2CCCCC2)c1O | 161 to 162
76 | O=C(CN1CCC(Cc2ccc(F)cc2)CC1)Nc1ccc2c(c1)CC(=O)N2 | 178 to 180
77 | COC(=O)c1ccc(OCCNC(=O)C2Cc3ccccc3N2S(=O)(=O)c2ccc(-c3ccc(F)cc3Cl)cc2)cc1F (stereo unspecified) | 71 to 76
78 | CC(C)CCCC(C)C1CCC2C3=C(CCC21C)C1(C)CCC(O)C(C)(C)C1CC3 (stereo unspecified) | 154 to 155
79 | OC(CSC1CCCCC1)CSC1CCCCC1 | 85.5 to 88.5

Row | SMILES | melting point [°C]
80 | O=C(O)c1ccc(S(=O)(=O)Oc2ccc(-c3ccc(-c4c(Cc5ccccc5)sc5ccccc45)cc3)cc2)cc1O | 236 to 238
81 | CC1CCN(C2(c3ccc(C#CC(=O)Nc4ccc(-c5ccc(Cl)cc5)cc4)cc3)CC2)CC1 | 128 to 129
82 | O=C(Nc1cccnc1)N1CCN(c2nccc(-c3c(F)cccc3F)n2)CC1 | 185 to 186
83 | CSc1cc2c(cc1C(F)(F)F)N(C(=O)Nc1cccc(C(=O)NC3CCN(Cc4ccccc4)C3)c1)CC2 (stereo unspecified) | 174 to 175
84 | Cc1c(NC(=O)c2ccc(OCc3ccccc3F)cc2)ccc2cc(CN3CCCC3)cnc12 | 104 to 105
85 | COC(=O)C(CNC(=O)OC(C)(C)C)NC(=O)C(C)(C)NC(=O)OCc1ccccc1 (stereo unspecified) (Cbz-[Aib]-[ξDap](Boc)-OMe) | 100 to 101
86 | O=C(CCl)Nc1c(Cl)cccc1SSc1cccc(Cl)c1NC(=O)CCl | 188 to 189
87 | CC(C)(CC(O)(C(=O)Nc1ccccc1)C(F)(F)F)c1cc(F)ccc1O (stereo unspecified) | 124 to 126
88 | Cc1cc(NC2=NCCN2)n(-c2ccc(F)cc2)n1 | 213 to 215
89 | Cc1cccc2c(-c3ccc(F)cc3)nccc12 | 91 to 92
90 | CC(C)(C)c1cc(-c2nc3ncccc3o2)cc(C(C)(C)C)c1 | 154 to 156
91 | CC(C)(C)OC(=O)N1C[C@H](Oc2nccc(NC(=O)c3ccccc3)n2)C[C@@H]1C(=O)OC(c1ccccc1)c1ccccc1 | 145 to 147
92 | COC(=O)c1ccc(SC)c(C(F)(F)F)c1 | 76 to 77
93 | CCCCc1nc2c(N)nc3ccccc3c2n1CCCCNS(=O)(=O)c1cccs1 | 138 to 142
94 | CCc1ccc(NC(=S)Nc2cc([N+](=O)[O-])ccc2O)cc1 | 137 to 138
95 | COC1(c2cc(F)cc(Sc3ccc(CONC(N)=O)cc3)c2)CCOCC1 | 104 to 105
96 | CC1CC(=O)NN=C1c1ccc(NCC(C)(C)N)cc1 (stereo unspecified) | 184 to 185
97 | CCc1c(C)c(=O)oc2cc(O)ccc12 | 184
98 | ON=C1CCCCC12OCCO2 | 97 to 98
99 | COCCNC(=O)c1cc(-c2cccc3cc(Cc4cccc(C(F)(F)F)c4)sc23)ccc1F | 94 to 95
100 | O=C(N1CCCCC12CCc1ccccc1C2=O)C(F)(F)F (stereo unspecified) | 97 to 100
101 | CC(C)(C)OCCOCCn1cc(C(=O)NCc2ccc(Cl)cc2)c(=O)c2cc(CN3CCOCC3)ccc21 | 130 to 132
